# Data from patent US20100179172A1, “N-PHENYL-METHANAMINE DERIVATIVE AND PESTICIDE CONTAINING IT” (priority 2007, published 2010).
# System: Larval ticks (Haemaphysalis longicornis)
# Experiment: Test on controlling effects against Haemaphysalis longicornis (Petri dish contact, knock down time, Test Example 7)
# Format: in vivo
# Conditions: 1 ml in Petri dish, 25° C.
# Experimental: On an inner surface of a Petri dish having a diameter of 9 cm, 1 ml of a solution of the compound No. 40 in acetone (concentration: 10 μg/ml, 1 μg/ml or 0.1 μg/ml) was dropped by a micro pipette. After the inner surface of the Petri dish was dried, 100 Larval ticks (Haemaphysalis longicornis) were put, and the Petri dish was covered with a polyethylene sheet and sealed by a rubber band. Thereafter, the Petri dish was left to stand still at a constant temperature of 25° C. under a relative humidity of 100% under a constant dark condition except for the time of observation. Observation was carried out every time upon expiration of a certain time (i.e. after 5, 10, 20, 30, 60, 120, 180 and 240 minutes), and the number of ticks knocked down after contact with the compound was counted. As a control group, Larval ticks were put in a Petri dish having 1 ml of acetone dropwise added and observed in the same manner. The above operation was repeated twice.
# From the number of knocked down ticks in each observation, the survival rate was obtained, and a corrected mortality was calculated by the following Abbott correction formula. Then, probit-time linear line was drawn, and the median knock down time (KT50 value) was obtained.
# Corrected mortality (%)=[(Survival rate in control group−Survival rate in treated group)/Survival rate in control group]×100
compound,measurement,setting,value
Cc1ncccc1CN(Cc1ccccn1)c1cc(C(F)(F)F)c(Br)c(C(F)(F)F)c1 [compound 40],"KT50 value, Average",0.1 μg/ml,38 min
same,"KT50 value, First time",0.1 μg/ml,40 min
same,"KT50 value, Second time",0.1 μg/ml,35 min
same,"KT50 value, Average",1 μg/ml,50 min
same,"KT50 value, First time",1 μg/ml,50 min
same,"KT50 value, Second time",1 μg/ml,50 min
same,"KT50 value, Average",10 μg/ml,40 min
same,"KT50 value, First time",10 μg/ml,40 min
same,"KT50 value, Second time",10 μg/ml,40 min
